# Experimental data as given in article PMC5738391, “Three classes of ligands each bind to distinct sites on the orphan G protein-coupled receptor GPR84” (Scientific Reports, 2017).
# Experiments:
# [1] = molecular target: T1, GPR84-Cys^352Ile Gαi2 fusion protein (Homo sapiens, UniProt Q9NQS5); assay: [35S]GTPγS binding, membranes expressing pertussis toxin-resistant GPR84-Cys352Ile Gαi2 fusion; operational model of allosteric modulation; format: biochemical
# Procedure: The only previous study[3] designed to explore the mode of binding of ligands to GPR84 employed a fusion protein[31],[32] in which the G protein Gαi1 was linked in-frame to the C-terminal tail of GPR84.
# Membranes were generated from Flp-In T-REx HEK293 cells treated with 100 ng/mL doxycycline to induce expression of the receptor construct of interest. Cells were washed with ice-cold phosphate-buffered saline, removed from dishes by scraping and centrifuged at 3000 rpm for 5 min at 4 °C. Pellets were resuspended in TE buffer (10 mM Tris-HCl, 0.1 mM EDTA; pH 7.5) containing a protease inhibitor mixture (Roche Applied Science, West Sussex, UK) and homogenized with a 5 ml hand-held homogenizer. This material was centrifuged at 1500 rpm for 5 min at 4 °C and the supernatant was further centrifuged at 50000 rpm for 45 min at 4 °C. The resulting pellet was resuspended in TE buffer and protein content was assessed using a BCA protein assay kit (Pierce, Fisher Scientific, Loughborough, UK).
# The reaction was then initiated with addition of [^35S]GTPγS (50 nCi per tube), and the reaction was terminated after 45 minutes incubation at 30 °C by rapid filtration through GF/C glass filters using a 24-well Brandel cell harvester (Alpha Biotech, Glasgow, UK). […] Dried filters were added to 3 mL of Ultima Gold^TM XR (PerkinElmer Life Sciences, Beaconsfield, UK) and [^35S]GTPγS binding was determined by liquid scintillation spectrometry.
# To quantify the extent of allosteric interaction between pairs of ligands, data were analysed using an operational model of allosteric modulation described previously. The general version of this model can be depicted by the following equation: E=Em(τA[A](KB+αβ[B])+τB[B]KA)^n/([A]KB+KAKB+[B]KA+α[A][B])^n+(τA[A](KB+αβ[B])+τB[B]KA)^n where, E is the pharmacological effect, [A] and [B] are the orthosteric and allosteric compound concentrations at equilibrium, respectively; KA and KB are the equilibrium dissociation constants of the orthosteric and allosteric ligands respectively, denoting the binding affinities of the two ligands to the receptor; α is the binding cooperativity factor denoting the magnitude and direction of the allosteric effect on binding affinity of the orthosteric agonist to the receptor, β is the activation cooperativity factor representing the measure of the allosteric effect on orthosteric efficacy. τA and τB represent the intrinsic activity of the orthosteric and allosteric ligand, respectively. Em is the maximal possible system response and n denotes the slope factor of the transducer function. In case of global fitting of the allosterism data through this equation, Em and n values were always constrained and other parameters (KA, KB,τA, τB, α, β) were estimated.
# Target sequence in this assay (Q9NQS5 whole entry, the tested form may be a part): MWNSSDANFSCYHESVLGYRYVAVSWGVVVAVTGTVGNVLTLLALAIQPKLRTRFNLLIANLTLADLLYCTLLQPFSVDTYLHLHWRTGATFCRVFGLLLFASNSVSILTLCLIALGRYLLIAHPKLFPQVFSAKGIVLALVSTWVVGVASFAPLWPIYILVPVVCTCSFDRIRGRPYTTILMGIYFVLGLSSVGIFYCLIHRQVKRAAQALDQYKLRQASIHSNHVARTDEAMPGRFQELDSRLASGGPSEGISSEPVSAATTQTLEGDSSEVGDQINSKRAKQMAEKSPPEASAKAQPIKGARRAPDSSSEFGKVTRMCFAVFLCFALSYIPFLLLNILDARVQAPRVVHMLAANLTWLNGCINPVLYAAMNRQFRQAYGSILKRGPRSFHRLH
# Target sequence in this assay (P04899 2-355 C352I, further chain): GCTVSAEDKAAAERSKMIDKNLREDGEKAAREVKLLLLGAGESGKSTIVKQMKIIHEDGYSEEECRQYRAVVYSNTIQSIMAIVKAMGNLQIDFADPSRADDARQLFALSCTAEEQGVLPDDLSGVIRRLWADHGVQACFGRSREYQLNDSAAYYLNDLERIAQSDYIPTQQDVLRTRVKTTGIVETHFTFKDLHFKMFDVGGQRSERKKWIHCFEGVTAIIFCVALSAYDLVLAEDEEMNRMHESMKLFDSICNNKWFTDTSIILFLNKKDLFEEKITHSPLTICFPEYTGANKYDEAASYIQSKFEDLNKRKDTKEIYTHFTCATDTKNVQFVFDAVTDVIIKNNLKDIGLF
# [2] = molecular target: T2, Arg^172Lys GPR84-Cys^352Ile Gαi2 fusion protein (Homo sapiens, UniProt Q9NQS5, R172K); assay: [35S]GTPγS binding, Arg172Lys mutant fusion protein; format: biochemical
# T2 construct: Cys352Ile Gαi2 (fusion partner, same polypeptide); expressed in transfected cells; host or cells: membranes of Flp-In T-REx 293 cells, doxycycline-induced
# T2 sequence (Q9NQS5 2-396 R172K): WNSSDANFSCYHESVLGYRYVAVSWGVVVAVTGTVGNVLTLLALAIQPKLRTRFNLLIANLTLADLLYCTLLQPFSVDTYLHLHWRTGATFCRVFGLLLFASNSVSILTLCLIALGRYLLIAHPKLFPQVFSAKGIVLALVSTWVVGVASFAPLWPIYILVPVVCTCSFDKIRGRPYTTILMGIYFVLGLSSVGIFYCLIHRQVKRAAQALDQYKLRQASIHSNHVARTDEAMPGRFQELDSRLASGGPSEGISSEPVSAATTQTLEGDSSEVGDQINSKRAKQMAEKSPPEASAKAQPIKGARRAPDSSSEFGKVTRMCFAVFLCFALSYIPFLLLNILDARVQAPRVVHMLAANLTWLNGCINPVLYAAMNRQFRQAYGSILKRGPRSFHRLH
# [3] = molecular target: T3, FLAG-Arg^174Ala hGPR84-eYFP (Homo sapiens, UniProt Q9NQS5, R174A); assay: [35S]GTPγS binding, Arg174Ala mutant receptor; format: biochemical
# T3 construct: expressed in transfected cells; host or cells: membranes of Flp-In T-REx 293 cells, doxycycline-induced
# T3 sequence (Q9NQS5 whole entry R174A): as the sequence (Q9NQS5 whole entry, the tested form may be a part) above, with R174A counted along it
# [4] = molecular target: T1, GPR84-Cys^352Ile Gαi2 fusion protein; assay: [3H]G9543 radioligand binding (saturation and displacement), GPR84-Cys352Ile Gαi2 fusion protein; design: Cys352Ile Gαi2 (fusion partner, same polypeptide); expressed in transfected cells; host or cells: membranes of Flp-In T-REx 293 cells, doxycycline-induced; settings: displacement assay
# Procedure: [^3H]G9543 is an analog of compounds 104, 107 and 161 with the same characteristic 2-(substituted-alkoxy)-9-substituted-6,7-dihydro-pyrimido[6,1-a]isoquinolin-4-one chemotype. […] Binding was initiated by the addition of membranes (5 µg of protein per tube). All assays were performed at 25 °C for 1 h before termination by the addition of ice-cold phosphate-buffered saline and vacuum filtration through GF/C glass filters using a 24-well Brandel cell harvester (Alpha Biotech, Glasgow, UK). Each reaction tube was washed three times with ice-cold PBS. The filters were allowed to dry for 2–3 h and then placed in 3 ml of Ultima Gold^TM XR. Radioactivity was quantified by liquid scintillation spectrometry. Specific binding was defined as the difference between binding detected in the presence and absence of 1 µM compound 104.
# All data are presented as means ± SEM of at least three independent experiments. Data analysis and curve fitting was carried out using the GraphPad Prism software package version 5.0b (GraphPad, San Diego). For functional assays the concentration-response data were plotted on a log axis, with the untreated vehicle control plotted at 1 log unit lower than the lowest ligand concentration, and fitted to a three parameter sigmoidal curve with the Hill slope constrained to equal 1. In case of inhibition experiments with antagonists an equivalent analysis was followed to fit an inverse sigmoidal curve. To perform the statistical analysis of curve parameters, data from multiple experiments were fitted independently and resulting curve fit values were analysed with indicated tests. For radioligand binding data, saturation binding curves were generated by fitting the specific binding, which was obtained by subtracting non-specific from total binding, to a one site specific binding model that allows calculation of Kd values for the radioligand at wild type and mutant receptors. To determine affinity of unlabelled ligands, data obtained in displacement assays were fit to an inverse three parameter sigmoidal curve constrained by radioligand affinity and concentration to allow for Ki calculation.
# Target sequence in this assay (Q9NQS5 2-396): as the sequence (Q9NQS5 2-396 R172K) above, with K171R counted along it
# [5] = agonist DIM, modulator compound-1
SMILES,increase in potency of DIM to activate GPR84 at high levels of C10 or other MCFAs versus absence of C10 [1],"logα ([1]; agonist DIM, modulator C-10)","logβ ([1]; agonist DIM, modulator C-10)","logα [1, 5]","logβ [1, 5]","logα ([1]; agonist DIM, modulator embelin)","logβ ([1]; agonist DIM, modulator embelin)","allosteric effect on potency of C10 ([1]; co-addition of increasing concentrations of DIM, pertussis toxin-treated cells)",effect on measured potency of compound-1 and embelin ([1]; increasing concentrations of DIM),"response after pertussis toxin treatment ([1]; pertussis toxin-resistant fusion, pertussis toxin 24 h)",agonist response at Arg172Lys mutant [2],effect of Arg174Ala mutation on agonist function or potency [3],ability to compete with [3H]G9543 binding [4],"co-addition with compound-1 or embelin, effect on potency [1]","logα ([1]; agonist C-10, modulator DIM)","logβ ([1]; agonist C-10, modulator DIM)"
"c1ccc2c(Cc3c[nH]c4ccccc34)c[nH]c2c1 [DIM, 3,-3′-diindolylmethane]",~20 fold,1.3 ± 0.1,1.2 ± 0.05,1.8 ± 0.08,1.14 ± 0.03,1.12 ± 0.04,1.0 ± 0.03,positive allosteric modulator,enhancing the measured potency,unaffected,without affecting response,did not affect function or potency,neither C10 nor DIM was able to compete effectively,,,
"CCCCCCCCCC(=O)O [C10, decanoic acid]",,,,,,,,,,,eliminated response,did not affect function or potency,neither C10 nor DIM was able to compete effectively,did not result in modulation of the potency,1.4 ± 0.1,0.4 ± 0.07
